Measurements: ChEMBL document CHEMBL1141837, “New steroidal alkaloids from the roots of buxus sempervirens” (1999)
Active and inactive are the calls of the source. The calls are words filed in the database; no cut-off is given here.

How the values were obtained:
Format in all cases: functional
Lemna minor [1] = assay: Phytotoxicity against Lemna minor L. at 50 ppm
Lemna minor [2] = assay: Phytotoxicity against Lemna minor L. at 500 ppm
Lemna minor [3] = assay: Phytotoxicity against Lemna minor L. at 5 ppm

SMILES	Activity (Lemna minor [1])	Activity (Lemna minor [2])	Activity (Lemna minor [3])
C[C@@H]([C@H]1CC[C@@]2(C)[C@@H]3CC[C@@H]4C(=CC3=CC[C@]12C)CC[C@H](N)C4(C)C)N(C)C	inactive	inactive	inactive
CC(=O)O[C@H]1C[C@@H]2[C@@]3(CC4=C[C@@H](OC(C)=O)[C@H](NC(=O)c5ccccc5)C(C)(C)[C@@H]41)O[C@H]3C[C@]1(C)[C@@H]([C@H](C)N(C)C)CC[C@@]21C	71%	86%	57%
CC(=O)O[C@H]1C[C@@H]2[C@H](CC[C@]3(C)[C@@H]([C@H](C)N(C)C)CC[C@@]23C)CC2=C[C@@H](O)[C@H](NC(=O)c3ccccc3)C(C)(C)[C@@H]21	inactive	inactive	inactive
CN[C@H]1CC[C@]23C[C@]24CC[C@]2(C)C(=O)CC[C@@]2(C)[C@@H]4CC[C@H]3C1(C)C	inactive	inactive	inactive
CC(=O)O[C@H]1C[C@@H]2[C@@]3(CC4=C[C@@H](O)[C@H](NC(=O)c5ccccc5)C(C)(C)[C@@H]41)O[C@H]3C[C@]1(C)[C@@H]([C@H](C)N(C)C)CC[C@@]21C	57%	86%	57%
